{"source": "patent US20050038473A1", "about": "“Device and method for the treatment of pilosebaceous disorders” (priority 2003, published 2005)", "origin": "cited, not measured here", "key": {"[1]": {"test_system": "hair follicles"}, "[2]": {"test_system": "in-vitro hair follicle cultures", "conditions": "5-alpha-reductase blocker, versus finasteride"}, "[3]": {"molecular_target": "T1, androgen receptors (Homo sapiens, UniProt P10275)", "T1 sequence (P10275 1-920)": "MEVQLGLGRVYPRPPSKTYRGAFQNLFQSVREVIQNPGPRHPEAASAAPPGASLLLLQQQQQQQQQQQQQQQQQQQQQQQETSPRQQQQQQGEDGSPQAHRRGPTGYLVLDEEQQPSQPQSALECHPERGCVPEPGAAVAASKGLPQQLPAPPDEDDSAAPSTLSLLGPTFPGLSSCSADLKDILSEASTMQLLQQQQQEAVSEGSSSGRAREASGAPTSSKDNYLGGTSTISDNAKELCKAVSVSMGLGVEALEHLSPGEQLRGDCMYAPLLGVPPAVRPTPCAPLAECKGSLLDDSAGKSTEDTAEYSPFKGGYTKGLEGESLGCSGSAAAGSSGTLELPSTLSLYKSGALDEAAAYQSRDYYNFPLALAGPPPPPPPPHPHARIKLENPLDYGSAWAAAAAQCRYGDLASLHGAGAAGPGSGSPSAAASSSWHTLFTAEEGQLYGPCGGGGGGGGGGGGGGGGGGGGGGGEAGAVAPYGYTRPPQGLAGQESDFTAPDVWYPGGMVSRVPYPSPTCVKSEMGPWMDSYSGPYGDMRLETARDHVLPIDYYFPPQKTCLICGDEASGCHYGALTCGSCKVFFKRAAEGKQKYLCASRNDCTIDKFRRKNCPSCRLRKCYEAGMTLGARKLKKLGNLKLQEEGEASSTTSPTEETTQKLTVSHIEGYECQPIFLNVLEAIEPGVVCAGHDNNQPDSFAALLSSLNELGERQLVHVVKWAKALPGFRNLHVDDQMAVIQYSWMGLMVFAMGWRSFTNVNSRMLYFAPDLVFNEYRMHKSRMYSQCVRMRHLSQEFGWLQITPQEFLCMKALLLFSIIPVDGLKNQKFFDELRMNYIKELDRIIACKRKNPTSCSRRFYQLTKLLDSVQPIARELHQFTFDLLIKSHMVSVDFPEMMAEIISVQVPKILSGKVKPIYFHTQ", "conditions": "compared with testosterone"}, "[4]": {"test_system": "idiopathic hirsutism", "conditions": "women with idiopathic hirsutism taking flutamide"}}, "note": "Like-named read-outs stand apart in the source and are kept apart here."}
{"smiles": "C=C1/C(=C\\C=C2/CCC[C@]3(C)[C@@H]([C@H](C)CCCC(C)(C)O)CC[C@@H]23)C[C@@H](O)C[C@@H]1O", "note": "[1,25-dihydroxyvitamin D3]", "values": [{"measurement": "effect on hair and hair follicle growth", "setting": "[1]; high concentration (100 nM) and after longer contact", "value": "inhibits"}, {"measurement": "effect on hair and hair follicle growth", "setting": "[1]; low concentration (1-10 nM), direct contact with hair follicles", "value": "stimulates"}]}
{"smiles": "CCN(CC)C(=O)[C@H]1CC[C@H]2[C@@H]3CC[C@H]4N(C)C(=O)CC[C@]4(C)[C@H]3CC[C@]12C", "note": "[17-beta-N,N-diethylcarbamyl-4-methyl-4-aza-5-androstan-3-one]", "values": [{"measurement": "effect on in-vitro hair follicle cultures compared with finasteride", "setting": "[2]", "value": "greater effect"}]}
{"smiles": "CN1C(=S)N(c2ccc(C#N)c(C(F)(F)F)c2)C(=O)C1(C)C", "note": "[RU 56187]", "values": [{"measurement": "affinity for androgen receptors relative to the affinity of testosterone", "setting": "[3]", "value": "three times higher"}]}
{"smiles": "CC1(C)C(=O)N(c2ccc(C#N)c(C(F)(F)F)c2)C(=S)N1CCCCO", "note": "[RU 59063]", "values": [{"measurement": "affinity for androgen receptors relative to the affinity of testosterone", "setting": "[3]", "value": "three times higher"}]}
{"smiles": "CC(C)C(=O)Nc1ccc([N+](=O)[O-])c(C(F)(F)F)c1", "note": "[flutamide]", "values": [{"measurement": "disturbance of plasma levels of gonadotropins, testosterone, androstenedione or dehydroepiandrostenedione", "setting": "[4]", "value": "without disturbance"}]}
